Assays:
[1] = system: bladder cancer cell of HT-1197; assay: Growth inhibition of HT-1197 (MTT); assay type: cell-based; conditions: for IC50: Homo sapiens, HT1197, read-out: IC50
Experimental: (§1) In the present experiment, the inhibitory activity of the compound of formula (1) was determined against the growth of K562 cancer cell. First, the cells were allowed to stand in RPMI (Roswell Park Memorial Institute)-1640 medium containing 10% (v/v) fetal bovine serum in an incubator of 37° C. and 5% by volume of CO2. The cancer cells (1000 cells) were transferred to a 96-well plate, and the test compound was diluted. The plate was allowed to stand under the above mentioned conditions for 2 days. After this treatment, to the cells was added 0.2% MTT (3-[4,5-dimethylthiazol-2-yl]-2,5-diphenyltetrazolium bromide) solution, and the resulting mixture was allowed to stand under the constant temperature-condition for 4 hours. The supernatant was removed to leave the resulting crystal. DMSO was added to dissolve the crystal, and the absorbance of the solution was measured at 540 nm. IC50 value was calculated using a computer system according to the following formula: […]
(§2) The test was performed according to the same procedure as Experiment 1.

[2] = system: oral epithelial cancer cell (KB); assay: Growth inhibition of KB (MTT); assay type: cell-based; design: IC50 as fraction of that of Imatinib mesylate: unit not given beside the values; conditions: for IC50: Homo sapiens
Experimental: as §1, §2

[3] = system: pancreatic cancer cell of PANC-1; assay: Growth inhibition of PANC-1 (MTT); assay type: cell-based; conditions: for IC50: Homo sapiens, read-out: IC50
[4] = system: L1210 cancer cell (leukemia cell line); assay: Growth inhibition of L1210 cancer cell (MTT); assay type: cell-based; conditions: Mus musculus
Experimental: as §1
In the present experiment, the inhibitory activity of the compound of formula (1) was determined against the growth of L1210 cancer cell. The test was performed according to the same procedure as Experiment 1.

mice (ICR) [5] = assay: Acute toxicity test in mice (oral administration); conditions: mouse, in vivo, po, 2000 mg/kg
Experimental: (§3) In order to determine the acute toxicity of the compound of the present invention when the compound is orally administered, mice (ICR, 24˜26 g) were fasted for 16 hours. One group consists of 10 males and 10 females. The first group is the control group and physiological saline was administered per oral to this group. The compounds of Examples 2 and 4 were orally administered in a dosage of 2000 mg/kg, the maximum dosage in acute toxicity test, to each test group. […] On the last day of the test, 14th day from the start, the mice were subjected to an autopsy in order to examine changes of the internal organs. […] This means that the compounds of the present invention including those of Examples 2 and 4 are safe in the aspect of acute toxicity.

[6] = Acute toxicity test in mice (oral administration); conditions: both sexes, ICR, mouse, in vivo, 2000 mg/kg; mice, oral
Experimental: as §3

mice (ICR) [7] = assay: Acute toxicity test in mice (intravenous administration); assay type: in vivo
Experimental: (§4) In this test, the acute toxicity of the compound of the present invention when the compound is intravenously administered was determined on mice (ICR, 24˜26 g). One group consists of 10 males and 10 females. The first group is the control group and physiological saline was intravenously administered to this group. The compound of Example 10 was intravenously administered in dosages of 25, 50, 75, and 100 mg/kg, respectively, to each test group. […] On the last day of the test, 14th day from the start, the mice were subjected to an autopsy in order to examine changes of the internal organs. […] No mouse died in these test groups. Further, in the test group of 100 mg/kg dosage, 8 mice among 10 died within 10 minutes after the administration.

[8] = as above; assay type: in vivo; conditions: both sexes, ICR, mouse, in vivo, iv; mice, intravenously administered
Experimental: as §4

sarcoma-180 = assay: Anti-cancer activity in sarcoma animal model; assay type: in vivo, ICR mouse; conditions: day 30; for Average tumor weight (Mean ± S.E.): three times at intervals of 4 days, in g (unit assumed)
Experimental: The anti-cancer activity against sarcoma-180 was determined using ICR mouse (22˜25 g, male). Sarcoma-180 (0.1 ml; 5×10^7 cells/ml) was hypodermically implanted to the left inguinal area of the mouse. After 72 hours from the hypodermic implantation, physiological saline was intravenously administered to the control group. For the test groups, the compound of Example 10 dissolved in physiological saline in a concentration of 25 or 50 mg/kg was intravenously administered three times at intervals of 4 days. On the 30th day from the implantation of the tumor cell, the mice were sacrificed to take out the induced solid tumors. The solid tumors were weighed, the average weight of the tumors was obtained, and the percent inhibition ratio was calculated according to the following formula:
Inhibition ratio (I.R.) (%)=[(Cw−Tw)/Cw]×100
I.R. represents the percent inhibition ratio,
Cw represents the average weight of tumor of the control group; and
Tw represents the average weight of tumor of the test group.

Compound: CS(=O)(=O)O.Cc1ccc(NC(=O)c2ccc(CNN3CCN(C)CC3)cc2)cc1Nc1nccc(-c2cccnc2)n1 [Example 4, 4-(4-methylpiperazin-1-ylaminomethyl)-N-[4-methyl-3-(4-(pyridin-3-yl)pyrimidin-2-yl)aminophenyl]benzamide methanesulfonate]
- IC50 [1]: 50.1 µg/mL
- IC50 [2]: 35 µg/mL
- Improved activity versus 5-Fu [3]: 10 times
- IC50 [3]: 53.8 µg/mL
- IC50 [4]: 26.9 µg/mL
- Clinical conditions and autopsy (mice (ICR) [5]): neither abnormal response nor specific autopsy result was observed
- Mortality during the test period (mice (ICR) [5]): no mouse died
- LD50 at 14 days [6]: ≥ 2000 mg/kg

Compound: CN1CCCN(Cc2ccc(C(=O)Nc3ccc(Nc4nccc(-c5cccnc5)n4)cc3)cc2)CC1.CS(=O)(=O)O [Example 10, 4-(4-methylhomopiperazin-1-ylmethyl)-N-[4-(4-(pyridin-3-yl)pyrimidin-2-yl)aminophenyl]benzamide methanesulfonate]
- Improved activity versus 5-Fu [1]: > 55 times
- Improved activity versus Imatinib mesylate [1]: > 32 times
- Improved activity versus cisplatin [1]: more than 4.4 times
- IC50 [1]: 1.7 µg/mL
- IC50 as fraction of that of Imatinib mesylate [2]: 1/5
- IC50 [2]: 8.99 µg/mL
- Improved activity versus 5-Fu [3]: > 120 times
- Improved activity versus Imatinib mesylate [3]: more than 10 times
- Improved activity versus cisplatin [3]: more than 9 times
- IC50 [3]: 4.62 µg/mL
- IC50 [4]: 3.4 µg/mL
- Clinical conditions and autopsy (mice (ICR) [7]; 25 mg/kg i.v., 14 days): neither abnormal response nor specific autopsy
- Mice died (mice (ICR) [7]; 100 mg/kg i.v., within 10 minutes after the administration): 8 mice among 10
- Clinical conditions (mice (ICR) [7]; 50 and 75 mg/kg i.v.): weak trembling immediately after the administration
- Mortality (mice (ICR) [7]; 50 and 75 mg/kg i.v.): No mouse died
- Time to recovery from trembling (mice (ICR) [7]; 50 and 75 mg/kg i.v.): ≤ 1 h
- LD50 at 14 days [8]: 75 to 100 mg/kg
- Percent Inhibition Ratio (I.R.) (sarcoma-180; 25 mg/kg i.v.): 36.1%
- Average tumor weight (Mean ± S.E.) (sarcoma-180; 25 mg/kg i.v.): 2.09 ± 1.4
- Percent Inhibition Ratio (I.R.) (sarcoma-180; 50 mg/kg i.v.): 63.0%
- Average tumor weight (Mean ± S.E.) (sarcoma-180; 50 mg/kg i.v.): 1.21 ± 1.2

Reference: US20040248918A1, “N-phenyl-2-pyrimidine-amine derivatives and process for the preparation thereof” (IL YANG PHARM. CO., LTD., priority 2003, published 2004)
